# Data taken from patent US12162893B2 (Erasca, Inc., priority 2020, dated 2024).
# Biological target: T1, mutant G12C K-RAS (Homo sapiens, UniProt P01116, G12C)
# T1 construct: made in house; host or cells: E. coli BL21
# Assay: covalent adduct formation (CAF) with mutant G12C K-RAS
# Assay type: binding
# Conditions: Table 2, Pyrimidone Core-Morpholine Substituted; after 60 minutes at 10 micromolar
# Method: Embodiments disclosed herein are further illustrated by the following examples in Tables 1-4 and the Examples hereinbelow. The Tables indicate the compound number, structure, the observed mass spectral molecular weight peak, and covalent adduct formation (CAF) with a mutant G12C K-RAS after 60 minutes at a concentration of 10 micromolar.
row,SMILES,% CAF (60 min) [%]
1,"C=CC(=O)N1C[C@H](C)N(c2nc(=O)n3c4c(c(-c5c(O)cccc5F)c(Cl)cc24)OC[C@@H]3CO)C[C@H]1C [Example 27, (3S,10S)-7-((2S,5R)-4-acryloyl-2,5-dimethylpiperazin-1-yl)-9-chloro-10-(2-fluoro-6-hydroxyphenyl)-3-(hydroxymethyl)-2H-[1,4]oxazino[2,3,4-ij]quinazolin-5(3H)-one]",85.5
2,"C=CC(=O)N1C[C@H](C)N(c2nc(=O)n3c4c(c(-c5c(O)cccc5F)c(Cl)cc24)OC[C@@H]3CO)C[C@H]1C [Example 26, (3S)-7-((2S,5R)-4-acryloyl-2,5-dimethylpiperazin-1-yl)-9-chloro-10-(2-fluoro-6-hydroxyphenyl)-3-(hydroxymethyl)-2H-[1,4]oxazino[2,3,4-ij]quinazolin-5(3H)-one]",81.9
3,"C=CC(=O)N1CCN(c2nc(=O)n3c4c(c(-c5c(O)cccc5F)c(Cl)cc24)OC[C@@H]3CO)[C@@H](C)C1 (single isomer, unassigned) [Example 24]",0
4,"C=CC(=O)N1C[C@H](C)N(c2nc(=O)n3c4c(c(-c5ccc(F)cc5F)c(Cl)cc24)OCC3CN(C)C)C[C@H]1C (stereo partly drawn) [Example 35, 7-((2S,5R)-4-acryloyl-2,5-dimethylpiperazin-1-yl)-9-chloro-10-(2,4-difluorophenyl)-3-((dimethylamino)methyl)-2H-[1,4]oxazino[2,3,4-ij]quinazolin-5(3H)-one]",84.6

# Same assay, conditions: Table 5; 10 uM, 1 h
row,SMILES,"% CAF @ 10 uM, 1 h [%]"
1,"C=CC(=O)N1CCN(c2nc(=O)n3c4c(c(-c5ccc(F)cc5F)c(Cl)cc24)SCC3)[C@H](CC#N)C1 [Example 117, 2-((2R)-4-acryloyl-1-(9-chloro-10-(2,4-difluorophenyl)-5-oxo-2,3-dihydro-5H-[1,4]thiazino[2,3,4-ij]quinazolin-7-yl)piperazin-2-yl)acetonitrile]",75.6

# Same assay, conditions: Table 6; 10 μM, 1 h
row,SMILES,"% CAF @ 10 μM,1 h [%]"
1,"C=CC(=O)N1C[C@H](C)N(c2nc(=O)n3c4c(c(-c5ccc(F)cc5F)c(Cl)cc24)OC[C@H]3COC[C@H]2CCCN2C)C[C@H]1C [Example 287, (3R)-7-((2S,5R)-4-acryloyl-2,5-dimethylpiperazin-1-yl)-9-chloro-10-(2,4-difluorophenyl)-3-((((R)-1-methylpyrrolidin-2-yl)methoxy)methyl)-2H-[1,4]oxazino[2,3,4-ij]quinazolin-5(3H)-one]",91.6
2,"C=CC(=O)N1C[C@H](C)N(c2nc(=O)n3c4c(c(-c5cc(Cl)ccc5F)c(Cl)cc24)OC[C@H]3CCCN2CCOCC2)C[C@H]1C [Example 216, (3R)-7-((2S,5R)-4-acryloyl-2,5-dimethylpiperazin-1-yl)-9-chloro-10-(5-chloro-2-fluorophenyl)-3-(3-morpholinopropyl)-2,3-dihydro-5H-[1,4]oxazino[2,3,4-ij]quinazolin-5-one]",73.8
3,"C=CC(=O)N1C[C@H](C)N(c2nc(=O)n3c4c(c(-c5ccc(F)cc5F)c(Cl)cc24)OC[C@@H]3Cn2ccnc2)C[C@H]1C [Example 238, (3S)-3-((1H-imidazol-1-yl)methyl)-7-((2S,5R)-4-acryloyl-2,5-dimethylpiperazin-1-yl)-9-chloro-10-(2,4-difluorophenyl)-2H-[1,4]oxazino[2,3,4-ij]quinazolin-5(3H)-one]",79.4
4,"C=CC(=O)N1C[C@H](C)N(c2nc(=O)n3c4c(c(-c5c(C)ccc6[nH]ncc56)c(Cl)cc24)OC[C@H]3CCCN2C[C@@H]3C[C@H]2CO3)C[C@H]1C (atropisomer, axis not shown) [Example 325, (3R,10S)-3-(3-((1S,4S)-2-oxa-5-azabicyclo[2.2.1]heptan-5-yl)propyl)-7-((2S,5R)-4-acryloyl-2,5-dimethylpiperazin-1-yl)-9-chloro-10-(5-methyl-1H-indazol-4-yl)-2,3-dihydro-5H-[1,4]oxazino[2,3,4-ij]quinazolin-5-one]",0
5,"C=CC(=O)N1C[C@H](C)N(c2nc(=O)n3c4c(c(-c5ccc(F)cc5F)c(Cl)cc24)OC[C@H]3CCCN(C)C2COC2)C[C@H]1C [Example 327, (3R)-7-((2S,5R)-4-acryloyl-2,5-dimethylpiperazin-1-yl)-9-chloro-10-(2,4-difluorophenyl)-3-(3-(methyl(oxetan-3-yl)amino)propyl)-2,3-dihydro-5H-[1,4]oxazino[2,3,4-ij]quinazolin-5-one]",84.5
6,"C=CC(=O)N1CCN(c2nc(=O)n3c4c(c(-c5c(O)cccc5F)c(Cl)cc24)OC[C@H]3CN2CCC(F)(F)C2)[C@@H](C)C1 (atropisomer, axis not shown) [Example 230, (3R,10S)-7-((S)-4-acryloyl-2-methylpiperazin-1-yl)-9-chloro-3-((3,3-difluoropyrrolidin-1-yl)methyl)-10-(2-fluoro-6-hydroxyphenyl)-2,3-dihydro-5H-[1,4]oxazino[2,3,4-ij]quinazolin-5-one]",75.9
7,"C=CC(=O)N1C[C@H](C)N(c2nc(=O)n3c4c(c(-c5ccc(F)cc5F)c(Cl)cc24)OC[C@H]3CCCN2C3CCC2COC3)C[C@H]1C [Example 254, (3R)-3-(3-(3-oxa-8-azabicyclo[3.2.1]octan-8-yl)propyl)-7-((2S,5R)-4-acryloyl-2,5-dimethylpiperazin-1-yl)-9-chloro-10-(2,4-difluorophenyl)-2,3-dihydro-5H-[1,4]oxazino[2,3,4-ij]quinazolin-5-one]",99.5
8,"C=CC(=O)N1C[C@H](C)N(c2nc(=O)n3c4c(c(-c5ccc(F)cc5F)c(Cl)cc24)OC[C@H]3CC2CCN(C3COC3)CC2)C[C@H]1C [Example 316, (3R)-7-((2S,5R)-4-acryloyl-2,5-dimethylpiperazin-1-yl)-9-chloro-10-(2,4-difluorophenyl)-3-((1-(oxetan-3-yl)piperidin-4-yl)methyl)-2H-[1,4]oxazino[2,3,4-ij]quinazolin-5(3H)-one]",84.2
9,"C=CC(=O)N1C[C@H](C)N(c2nc(=O)n3c4c(c(-c5ccc(F)cc5F)c(Cl)cc24)OC[C@H]3CC2(O)CCN(C)CC2)C[C@H]1C [Example 293, (3R)-7-((2S,5R)-4-acryloyl-2,5-dimethylpiperazin-1-yl)-9-chloro-10-(2,4-difluorophenyl)-3-((4-hydroxy-1-methylpiperidin-4-yl)methyl)-2H-[1,4]oxazino[2,3,4-ij]quinazolin-5(3H)-one]",82.4
10,"C=CC(=O)N1C[C@H](C)N(c2nc(=O)n3c4c(c(-c5ccc(F)cc5F)c(Cl)cc24)OC[C@H]3CCCN(C)CC(F)(F)F)C[C@H]1C [Example 284, (3R)-7-((2S,5R)-4-acryloyl-2,5-dimethylpiperazin-1-yl)-9-chloro-10-(2,4-difluorophenyl)-3-(3-(methyl(2,2,2-trifluoroethyl)amino)propyl)-2,3-dihydro-5H-[1,4]oxazino[2,3,4-ij]quinazolin-5-one]",92.4
11,"C=CC(=O)N1C[C@H](C)N(c2nc(=O)n3c4c(c(-c5ccc(F)cc5F)c(Cl)cc24)OC[C@H]3CN2CCOCC2)C[C@H]1C [Example 204, (3R)-7-((2S,5R)-4-acryloyl-2,5-dimethylpiperazin-1-yl)-9-chloro-10-(2,4-difluorophenyl)-3-(morpholinomethyl)-2H-[1,4]oxazino[2,3,4-ij]quinazolin-5(3H)-one]",82
